Data published in ChEMBL document CHEMBL5241112, “Insights into the recent progress in the medicinal chemistry of pyranopyrimidine analogs” (RSC Med Chem, 2022).
Converted amounts (≈) assume the structure as drawn.

Tests used:
Candida albicans [1] = assay: Antifungal activity against Candida albicans assessed as diameter of inhibition zone at 100 ug/ml by agar disc diffusion method; format: functional; conditions: read-out: DIZ
Staphylococcus aureus [2] = assay: Antibacterial activity against Staphylococcus aureus assessed as diameter of inhibition zone at 100 ug/ml by disc diffusion method; format: functional; conditions: read-out: DIZ
Escherichia coli [3] = assay: Antibacterial activity against Escherichia coli assessed as diameter of inhibition zone at 100 ug/ml by disc diffusion method; format: functional; conditions: read-out: DIZ
[4] = Antioxidant activity assessed as DPPH radical scavenging activity at 75 ug/ml incubated for 30 mins by spectrophotometric analysis; format: functional; conditions: dose 75.0 µg/ml
Klebsiella pneumoniae [5] = assay: Antibacterial activity against Klebsiella pneumoniae MTCC 109 assessed as diameter of inhibition zone at 0.1 mg/ml incubated for 24 hrs by agar well diffusion method; format: functional; conditions: read-out: DIZ
Alpha-glucosidase = Alpha-glucosidase (Saccharomyces cerevisiae S288c, UniProt P53341+P38158+P07265); assay: Inhibition of Saccharomyces cerevisiae alpha-glucosidase preincubated for 5 mins followed by PNP-GLUC substrate addition and measured after 20 mins by spectroscopic analysis; format: protein assay
Staphylococcus aureus [6] = assay: Antibacterial activity against Staphylococcus aureus MTCC 87 assessed as diameter of inhibition zone at 0.1 mg/ml incubated for 24 hrs by agar well diffusion method; format: functional; conditions: read-out: DIZ
Albumin = Albumin (Bos taurus, UniProt P02769); assay: […] bovine serum albumin denaturation incubated for 23 mins by UV-Visible spectrophotometry
[7] = Inhibition of porcine pancreatic alpha-amylase preincubated for 10 mins followed by substrate starch addition and measured after 10 mins by colorimetric analysis; set-up: species or system Sus scrofa
[8] = Antioxidant activity assessed as DPPH radical scavenging activity at 12 ug incubated for 30 mins by spectrophotometric analysis; format: functional; conditions: dose 12.0 µg
[9] = Antioxidant activity assessed as DPPH radical scavenging activity at 100 ug/ml incubated for 30 mins by spectrophotometric analysis; format: functional; conditions: dose 100.0 µg/ml
MCF7 [10] = assay: Antiproliferative activity against human MCF7 cells assessed as reduction in cell proliferation; format: functional, cell-based
HepG2 [11] = assay: Antiproliferative activity against human HepG2 cells assessed as reduction in cell proliferation; format: functional, cell-based
[12] = Antiproliferative activity against human […] cells assessed as reduction in cell proliferation; format: functional, cell-based
Escherichia coli [13] = assay: Antibacterial activity against Escherichia coli NCIM 2066 assessed as diameter of inhibition zone incubated for 24 hrs by agar well diffusion method; format: functional
Staphylococcus aureus [14] = assay: Antibacterial activity against Staphylococcus aureus NCIM 2654 assessed as diameter of inhibition zone incubated for 24 hrs by agar well diffusion method; format: functional
Candida albicans [15] = assay: Antifungal activity against Candida albicans assessed as diameter of inhibition zone incubated for 48 hrs by agar well diffusion method; format: functional
Klebsiella pneumoniae [16] = assay: Antimicrobial activity against Klebsiella pneumoniae ATCC 15380 assessed as diameter of inhibition zone at 20 mg/ml incubated for 24 hrs by disk diffusion method; format: functional; conditions: read-out: DIZ
Salmonella typhimurium [17] = assay: Antimicrobial activity against Salmonella typhimurium ATCC 19430 assessed as diameter of inhibition zone at 20 mg/ml incubated for 24 hrs by disk diffusion method; format: functional, Salmonella enterica subsp. enterica serovar Typhimurium; conditions: Salmonella enterica, read-out: DIZ
Bacillus cereus = assay: Antimicrobial activity against Bacillus cereus ATCC14579 assessed as diameter of inhibition zone at 20 mg/ml incubated for 24 hrs by disk diffusion method; format: functional; conditions: read-out: DIZ
HepG2 [18] = assay: Anticancer activity against human HepG2 cells assessed as reduction in cell viability; format: functional, cell-based
MCF7 [19] = assay: Anticancer activity against human MCF7 cells assessed as reduction in cell viability; format: functional, cell-based
Aspergillus niger = assay: Antifungal activity against Aspergillus niger assessed as inhibition of fungal growth; format: functional
Aspergillus flavus = assay: Antifungal activity against Aspergillus flavus assessed as inhibition of fungal growth; format: functional
Staphylococcus aureus [20] = assay: Antibacterial activity against Staphylococcus aureus assessed as diameter of inhibition zone; format: functional
Salmonella typhimurium [21] = assay: Antibacterial activity against Salmonella typhimurium assessed as diameter of inhibition zone; format: functional, Salmonella enterica subsp. enterica serovar Typhimurium
Escherichia coli [22] = assay: Antibacterial activity against Escherichia coli assessed as diameter of inhibition zone; format: functional
Pseudomonas aeruginosa [23] = assay: Antimicrobial activity against Pseudomonas aeruginosa ATCC 27853 assessed as diameter of inhibition zone at 20 mg/ml incubated for 24 hrs by disk diffusion method; format: functional; conditions: read-out: DIZ
Klebsiella pneumoniae [24] = assay: Antimicrobial activity against Klebsiella pneumoniae UC57 assessed as diameter of inhibition zone at 20 mg/ml incubated for 24 hrs by disk diffusion method; format: functional; conditions: read-out: DIZ
Pseudomonas aeruginosa [25] = assay: Antibacterial activity against Pseudomonas aeruginosa assessed as inhibition of bacterial growth; format: functional
Bacillus subtilis = assay: Antibacterial activity against Bacillus subtilis assessed as diameter of inhibition zone; format: functional
Escherichia coli [26] = assay: Antimicrobial activity against Escherichia coli ATCC 14169 assessed as diameter of inhibition zone at 20 mg/ml incubated for 24 hrs by disk diffusion method; format: functional; conditions: read-out: DIZ
Escherichia coli [27] = assay: Antibacterial activity against Escherichia coli assessed as inhibition of bacterial growth; format: functional
HCT-116 = assay: cells; conditions: Homo sapiens
Staphylococcus aureus [28] = assay: Antimicrobial activity against Staphylococcus aureus NCTC7447 assessed as diameter of inhibition zone at 20 mg/ml incubated for 24 hrs by disk diffusion method; format: functional; conditions: read-out: DIZ
Urease = Urease (Canavalia ensiformis, UniProt P07374); assay: Inhibition of jack bean urease by phenol red method
Candida albicans [29] = assay: Antifungal activity against Candida albicans assessed as inhibition of fungal growth; format: functional
Staphylococcus aureus [30] = assay: Antibacterial activity against Staphylococcus aureus assessed as inhibition of bacterial growth; format: functional

Urease, sequence (P07374 whole entry): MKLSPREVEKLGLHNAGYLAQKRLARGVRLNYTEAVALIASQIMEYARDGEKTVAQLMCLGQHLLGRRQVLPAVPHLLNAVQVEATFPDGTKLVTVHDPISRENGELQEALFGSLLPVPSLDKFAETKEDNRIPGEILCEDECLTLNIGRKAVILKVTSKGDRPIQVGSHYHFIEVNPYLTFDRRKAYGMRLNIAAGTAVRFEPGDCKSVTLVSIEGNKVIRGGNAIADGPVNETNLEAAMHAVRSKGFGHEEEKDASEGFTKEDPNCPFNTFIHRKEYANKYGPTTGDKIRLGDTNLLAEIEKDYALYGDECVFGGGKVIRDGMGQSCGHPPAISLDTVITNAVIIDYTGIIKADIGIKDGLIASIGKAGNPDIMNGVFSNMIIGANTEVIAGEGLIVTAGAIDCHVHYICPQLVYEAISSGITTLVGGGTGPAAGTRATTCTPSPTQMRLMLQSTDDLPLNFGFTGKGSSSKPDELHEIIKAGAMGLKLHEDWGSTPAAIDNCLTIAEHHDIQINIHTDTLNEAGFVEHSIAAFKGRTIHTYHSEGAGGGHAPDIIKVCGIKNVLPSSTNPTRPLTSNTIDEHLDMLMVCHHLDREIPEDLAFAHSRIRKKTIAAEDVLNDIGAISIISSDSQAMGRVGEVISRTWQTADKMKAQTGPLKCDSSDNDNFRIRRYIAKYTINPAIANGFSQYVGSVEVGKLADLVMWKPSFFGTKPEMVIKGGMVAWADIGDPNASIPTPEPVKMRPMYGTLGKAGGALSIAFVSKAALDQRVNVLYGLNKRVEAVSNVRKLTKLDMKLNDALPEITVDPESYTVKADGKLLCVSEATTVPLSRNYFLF
Albumin, sequence (P02769 whole entry): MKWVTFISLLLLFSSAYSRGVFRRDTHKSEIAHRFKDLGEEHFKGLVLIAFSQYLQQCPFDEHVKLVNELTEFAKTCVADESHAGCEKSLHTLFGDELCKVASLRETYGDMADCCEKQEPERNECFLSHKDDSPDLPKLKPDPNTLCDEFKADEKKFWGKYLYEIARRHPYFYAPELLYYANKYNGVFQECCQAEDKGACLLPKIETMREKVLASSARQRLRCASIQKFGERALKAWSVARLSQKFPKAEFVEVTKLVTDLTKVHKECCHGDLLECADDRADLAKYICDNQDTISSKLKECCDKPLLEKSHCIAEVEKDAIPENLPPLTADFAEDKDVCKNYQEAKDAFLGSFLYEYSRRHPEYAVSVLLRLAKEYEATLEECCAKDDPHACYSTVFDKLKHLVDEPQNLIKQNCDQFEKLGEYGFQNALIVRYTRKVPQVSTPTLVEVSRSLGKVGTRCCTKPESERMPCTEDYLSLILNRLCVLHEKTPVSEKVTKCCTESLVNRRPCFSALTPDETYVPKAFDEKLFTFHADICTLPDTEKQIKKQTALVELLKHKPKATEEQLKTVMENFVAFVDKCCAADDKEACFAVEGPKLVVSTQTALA

CCOC(=O)C1=C(C)Oc2nc(C)n(Cc3cn(-c4cccc([N+](=O)[O-])c4)nn3)c(=O)c2C1c1ccc([N+](=O)[O-])cc1 (stereo not drawn)
zone of inhibition at 100 µg/mL (Candida albicans [1]): 16.5 mm | zone of inhibition at 100 µg/mL (Staphylococcus aureus [2]): 16 mm | zone of inhibition at 100 µg/mL (Escherichia coli [3]): 15 mm

N=c1c2c(ncn1N)Oc1[nH]nc(-c3ccccc3)c1C2c1coc2ccccc2c1=O (stereo not drawn)
Activity [4]: 85.5%

O=C(C1=C(c2ccccc2O)Oc2[nH]c(=S)[nH]c(=O)c2C1c1ccc(F)cc1)N1CCCCC1 (stereo not drawn)
zone of inhibition at 100 µg/mL (Klebsiella pneumoniae [5]): 9.2 mm | IC50 (Alpha-glucosidase): 4101 µM | zone of inhibition at 100 µg/mL (Staphylococcus aureus [6]): 10.5 mm | IC50 (Albumin): 12.3 µM | IC50 [7]: 42.8 µM

O=C1O[C@H]([C@@H](O)CO)C(O)=C1O
Activity [4]: 89.4% | Activity [8]: 94.6% | Activity [9]: 97.6%

NNc1ncnc2c1C(c1cn(-c3ccccc3)nc1-c1ccccc1)c1c(ccc3ccccc13)O2 (stereo not drawn)
IC50 (MCF7 [10]): 9.89 µM | IC50 (HepG2 [11]): 9.26 µM | IC50 [12]: 4.9 µM

Cc1n[nH]c2c1C(c1ccccc1)c1c([nH]c(=O)[nH]c1=O)O2 (stereo not drawn)
Activity [8]: 65.8% | diameter of the inhibition zone (DIZ) (Escherichia coli [13]): 14 mm | diameter of the inhibition zone (DIZ) (Staphylococcus aureus [14]): 18 mm | diameter of the inhibition zone (DIZ) (Candida albicans [15]): 23 mm

N=c1c2c(ncn1-c1ccccc1O)Oc1ccc3ccccc3c1C2c1cn(-c2ccccc2)nc1-c1ccccc1 (stereo not drawn)
IC50 (MCF7 [10]): 2.67 µM | IC50 (HepG2 [11]): 3.41 µM | IC50 [12]: 4.9 µM

N#CC1=C(N)Oc2[nH]c(=O)[nH]c(=O)c2C1c1ccc[nH]1 (stereo not drawn)
zone of inhibition at 20000 µg/mL (Klebsiella pneumoniae [16]): 16 mm | zone of inhibition at 20000 µg/mL (Salmonella typhimurium [17]): 20 mm

COc1ccc(C2C(C#N)=C(N)Oc3[nH]c(=O)[nH]c(=O)c32)cc1 (stereo not drawn)
zone of inhibition at 20000 µg/mL (Bacillus cereus): 11 mm | IC50 (HepG2 [18]): 2.09 µM | IC50 (MCF7 [19]): 2.43 µM | MIC (Aspergillus niger): 162 µg/mL (≈ 520 µM) | MIC (Aspergillus flavus): 150 µg/mL (≈ 480 µM) | diameter of the inhibition zone (DIZ) (Staphylococcus aureus [20]): 10 mm | diameter of the inhibition zone (DIZ) (Salmonella typhimurium [21]): 8 mm | diameter of the inhibition zone (DIZ) (Escherichia coli [22]): 10 mm | zone of inhibition at 20000 µg/mL (Pseudomonas aeruginosa [23]): 5 mm | zone of inhibition at 20000 µg/mL (Klebsiella pneumoniae [24]): 14 mm | MIC (Pseudomonas aeruginosa [25]): 25 µg/mL (≈ 80.1 µM) | diameter of the inhibition zone (DIZ) (Bacillus subtilis): 12 mm | zone of inhibition at 20000 µg/mL (Escherichia coli [26]): 8 mm | MIC (Escherichia coli [27]): 25 µg/mL (≈ 80.1 µM) | IC50 (HCT-116): 2.61 µM | zone of inhibition at 20000 µg/mL (Staphylococcus aureus [28]): 14 mm | IC50 (Urease): 62.9 µM | MIC (Candida albicans [29]): 125 µg/mL (≈ 400 µM)

N#CC1=C(N)Oc2[nH]c(=O)[nH]c(=O)c2C1Cc1ccccc1 (stereo not drawn)
MIC (Staphylococcus aureus [30]): 25 µg/mL (≈ 84.4 µM) | MIC (Aspergillus niger): 162 µg/mL (≈ 548 µM) | MIC (Aspergillus flavus): 150 µg/mL (≈ 506 µM) | MIC (Pseudomonas aeruginosa [25]): 87.5 µg/mL (≈ 295 µM) | MIC (Escherichia coli [27]): 25 µg/mL (≈ 84.4 µM) | MIC (Candida albicans [29]): 125 µg/mL (≈ 422 µM)

O=c1c(C2c3c(O)ncnc3Oc3[nH]nc(-c4ccccc4)c32)coc2ccccc12 (stereo not drawn)
Activity [9]: 87.5%

Cc1ccc(C2c3c(C)n[nH]c3Oc3[nH]c(=O)[nH]c(=O)c32)cc1 (stereo not drawn)
Activity [8]: 71.9% | diameter of the inhibition zone (DIZ) (Escherichia coli [13]): 23 mm | diameter of the inhibition zone (DIZ) (Staphylococcus aureus [14]): 25 mm | diameter of the inhibition zone (DIZ) (Candida albicans [15]): 27 mm
